The subject of series [1] is human urinary bladder cancer cell line RT-112. The series is described as follows: Cytotoxicity assay (CellTiter-Glo, 72 h), RT-112. The series is classed as cell-based. Conditions: RT-112, 72 hours, read-out: Cytotoxicity (IC50, nM) RT-112. A general note: Cellular ATP, detected with luciferase, serves as a proxy for viable cell number.
Method: (§1) Cytotoxicity of SDC-TRAP molecules was determined in three cancer cell lines. […] 80 μL of CellTiter-Glo was added to each well, followed by room temperature incubation in the dark for 15 minutes. Cell was determined by luminescence. IC50 was calculated using XLfit™ software.
The test system of series [2] is human breast cancer cell line BT-474. As to the kind of experiment: Cytotoxicity assay (CellTiter-Glo, 72 h), BT-474. Conditions: BT-474, 72 hours, read-out: Cytotoxicity (IC50, nM) BT-474. The series is classed as cell-based.
Method: as §1
In another series the test system is HER2. As to the kind of experiment: HER2 degradation assay with BT-474 cell line (Example 12, FACS). The class given is cell-based, human. Particulars: BT-474 cells, overnight.
Series [3] is described as follows: Artificial membrane permeability assay (PAMPA). Particulars: same protocol, second table. For orientation: PAMPA measures passive passage across an artificial lipid membrane.
Method: Pre-coated PAMPA plates were warmed to room temperature for at least 30 minutes prior to adding assay components.
Stock solutions were prepared with the SDC-TRAP molecules to be tested. In order to make a working solution, either 50 μL of 100 μM Stock in DMSO+950 μL of PBS or 50 μL of 200 μM stock was added to 96 deep well plate, resulting in a 5 μM final concentration or a 10 μM final concentration, respectively. 3000 μL of the working solution containing each compound to be tested was added to the appropriate well of a donor PAMPA plate. 200 μL of PBS was added into the corresponding wells of an acceptor PAMPA plates.
The acceptor plate was lowered onto the donor plate and allowed to incubate for five hours. After five hours, a 50 μL aliquot was removed from each well of each plate and added into a new 96 deep-well plate.
100 μL of methanol containing an internal standard was added to each aliquot and analyzed by LC/MS.
In order to calculate the permeability for each SDC-TRAP molecule and the control molecules, the following formula was used:
The target of the next series is T1, Hsp90α (Homo sapiens, UniProt P07900).
T1 construct: purchased BPS Bioscience 50294
As to the kind of experiment: Hsp90α binding assay (fluorescence polarization, FITC-labeled geldanamycin; Example 11). Conditions: read-out: EC50 (Hsp90 binding assay). Here is the method: An Hsp90^α fluorescence assay kit from BPS Bioscience (Cat #50294) containing Hsp90 recombinant enzyme, FITC-labeled geldanamycin, assay buffer and a low binding 384-well plate was used to assay Hsp90^α binding. Dithiothreitol (DTT) (Cat # D0643) and bovine serum albumin (BSA) (Cat # A2153) were obtained from Sigma-Aldrich. Fluorescence polarization was measured using a PHERAstar microplate reader (BMG LABTECH GmbH, Orienberg, Germany.)
The compounds were diluted to 1 mM in DMSO and loaded into a compound dilution plate to make 3-fold dilutions yielding a total of 8 concentrations. […] 5 mL of Hsp90^□ binding solution was prepared having a final concentration of 7 ng/[…]binding^□, 5 nM FITC-labeled geldanamycin, 2 mM DTT and 0.1 mg/mL BSA. 49 μL of binding solution was added to each microplate well, incubated at room temperature for 1 hour, then read using the PHERAstar microplate reader. The high control sample contained no compound plus Hsp90^α; the low control sample contained no compound and no Hsp90^α. […] The IC50 was calculated using GraphPad Prism 4 software.
On the technique in general: In fluorescence polarisation assays a small probe gives low polarisation when free and higher when bound to something large.

In series [4] the test system is human urinary bladder cancer cell line SW780. The series is described as follows: Cytotoxicity assay (CellTiter-Glo, 72 h), SW780. The class given is cell-based. Particulars: SW780, 72 hours, read-out: Cytotoxicity (IC50, nM) SW-780.
Method: as §1
A further series relates to SK-OV-3 xenografts. The series is described as follows: Antitumor activity in SK-OV-3 ovarian cancer xenografts. The series is classed as in vivo, female Balb/c nude mice. Conditions: SDC-TRAP-0063 200 mg/kg group; irinotecan alone and with ganetespib. The procedure:
This model is sensitive to HSP90 inhibition.
However, once the dosing is discontinued all but 200 mg/kg of SDC-TRAP-0063 dose group maintained tumor growth inhibition for a prolonged period of time.

For series [5] the following is noted: mouse, plasma, 1 h, 10 µM.
Series [6] relates to HCT-116 human colorectal xenografts. The series is described as follows: Mouse xenograft efficacy in HCT-116 colon cancer model. Conditions: mouse, in vivo.
Method: (§2) The cells were maintained in vitro as a monolayer culture in McCoy's 5a Medium. Fetal bovine serum was then be added to the medium. The final concentration of fetal bovine serum was 10%. Cells were cultured at 37° C. and 5% CO2. The tumor cells were routinely sub-cultured twice weekly by trypsin-EDTA treatment. Cells in an exponential growth phase were harvested and counted for tumor inoculation.
(§3) 100 18-22 g, 5-7 week old, female BALB/cA nude mice were inoculated with the HCT 116 cells (2.0×10^6, 1:1 with Matrigel) subcutaneously on the back of each animal (0.1 mL/mouse). When the average tumor volume reached about 150-250 mm^3, 60 of the inoculated mice was selected based on tumor growth and randomly grouped into 6 treatment groups (10 mice per group) according to the following table.
(§4) The administrations were made with 27-gauge IV needle.
(§5) During the treatment period, the implanted tumors were measured by caliper twice per week. The tumors were measured for the maximum width (X) and length (Y) and the tumor volumes (V) were calculated using the formula: V=(X^2Y)/2. The differences in the tumor volume between the control and treatment groups were analyzed for significance using the unpaired two-tailed Student's t-test. P<0.05 was considered to be statistically significant. The animal body weights were also weighed and recorded twice per week.
The test system is the same in series [7]. Particulars: female, BALB/cA nude, mouse, in vivo, iv.
Method: as §2, §3, §4, §5
The test system of series [8] is Hsp90 client proteins (EGFR, MET, CDC2), Hsp70, DNA damage markers. The series is described as follows: Pharmacodynamics in SCLC xenograft tumors. The class given is in vivo. Particulars: SCLC xenograft tumors, 24, 72 and 96 hrs.
For series [9], the system named is human SCLC tumor xenografts. As to the kind of experiment: Antitumor activity in human SCLC tumor xenografts. The class given is in vivo, mice. Conditions: SCLC xenografts; day 46.
Series [10] concerns H2AX phosphorylation, HSP70, EGFR, MET. As to the kind of experiment: Pharmacodynamics in CRC (HCT-116) xenograft tumors. The series is classed as in vivo, mouse.

As to `CCNC(=O)c1nnc(-c2cc(C(C)C)c(O)cc2O)n1-c1ccc(OC2CCN(c3cnc(C(=O)N[C@H]4C[C@H](O[C@H]5C[C@](O)(C(=O)CO)Cc6c(O)c7c(c(O)c65)C(=O)c5c(OC)cccc5C7=O)O[C@@H](C)[C@H]4O)cn3)CC2)cc1` [SDC-TRAP-0200, 5-(4-(4-(3-(2,4-dihydroxy-5-isopropylphenyl)-5-(ethylcarbamoyl)-4H-1,2,4-triazol-4-yl)phenoxy)piperidin-1-yl)-N-((2S,3S,4S,6R)-3-hydroxy-2-methyl-6-(((1S,3S)-3,5,12-trihydroxy-3-(2-hydroxyacetyl)-10-methoxy-6,11-dioxo-1,2,3,4,6,11-hexahydrotetracen-1-yl)oxy)tetrahydro-2H-pyran-4-yl)pyrazine-2-carboxamide], the IC50 in series [1] was 16 nM; in [2], 32 nM; in the series with HER2, over 10 µM; in series [4] it was 651 nM. For the same compound, in series [3], the “Mass Retention” value worked out at 10.6%. The 50% effective concentration (EC50) at Hsp90α was found to be 0.253 µM.

Turning to `CCNC(=O)c1nnc(-c2cc(C(C)C)c(O)cc2O)n1-c1ccc(Oc2ccc(C(=O)N[C@H]3C[C@H](O[C@H]4C[C@](O)(C(=O)CO)Cc5c(O)c6c(c(O)c54)C(=O)c4c(OC)cccc4C6=O)O[C@@H](C)[C@H]3O)cc2)cc1` [SDC-TRAP-0199, 5-(2,4-dihydroxy-5-isopropylphenyl)-N-ethyl-4-(4-(4-(((2S,3 S,4S,6R)-3-hydroxy-2-methyl-6-(((1S,3S)-3,5,12-trihydroxy-3-(2-hydroxyacetyl)-10-methoxy-6,11-dioxo-1,2,3,4,6,11-hexahydrotetracen-1-yl)oxy)tetrahydro-2H-pyran-4-yl)carbamoyl)phenoxy)phenyl)-4H-1,2,4-triazole-3-carboxamide], the half-maximal inhibitory concentration (IC50) in [1] is 29 nM; in series [2], 29 nM; with HER2, over 10 µM; in series [4], 2300 nM. Further, the EC50 at Hsp90α was 0.136 µM.

Turning to `CCc1c2c(nc3ccc(OC(=O)N4CCC(N5CCCCC5)CC4)cc13)-c1cc3c(c(=O)n1C2)COC(=O)[C@]3(O)CC` [irinotecan, reference compound], the “antitumor activity in SK-OV-3 xenografts (FIG. 25)” value in the series on SK-OV-3 xenografts is recorded as “statistically significant inhibitory impact on the growth of SK-OV-3 xenografts”. In series [5], the “% Remaining (1 h)” value is recorded as 32.5%. Further, in series [6], the “antitumor activity in HCT-116 xenografts (FIG. 23)” value is reported as “significantly inhibited the growth of HCT-116 human colorectal xenografts”. Moreover, the “animal death during the treatment” value in [7] is reported as 20-30%. Moreover, the “kinetics of acetyl-histone H3 induction” value in series [8] is “maximal induction of acetyl-histone H3 by 24 hr”. Besides, the mice found dead in series [9] is 1/8. The H2AX phosphorylation result in series [10] (HCT-116 tumors, 24 hr) is on record as “stimulate H2AX phosphorylation at 24 hr”. For the same compound, the “kinetics of H2AX phosphorylation” value in series [10] (HCT-116 xenograft tumors) was “maximally induced at 4 hr and stable at 24 hr”.

In general, IC50 refers to the concentration that inhibits the measured activity by half. In general, EC50 refers to the midpoint of the concentration-response curve.

The record behind these values is patent publication US10828315B2 (Madrigal Pharmaceuticals, Inc., priority 2013, dated 2020).
